Measured values as given in article PMC4906375, “Contribution of Amphipathicity and Hydrophobicity to the Antimicrobial Activity and Cytotoxicity of β-Hairpin Peptides” (ACS Infectious Diseases, 2016).
Converted amounts (≈) assume the structure as drawn. Like-named read-outs stand apart in the source and are kept apart here.

Tests used:
[1] = system: E. coli ATCC 25922 cytoplasmic membrane; assay: Inner membrane permeability measured by SYTOX green fluorescence emission; details: SYTOX green, E. coli ATCC 25922, 1 h
[2] = system: B. subtilis ATCC 6051; assay: microbe, parasite or virus in culture; format: cell-based, Bacillus subtilis; details: ATCC 6051
Experimental: (§1) Both antibacterial and antifungal MIC assays were performed by a broth microdilution plate based method as per CLSI guidelines for antimicrobial susceptibility testing.[53],[54] […] Full assay details are included in the Supporting Information with a full list of strains tested in Table S1.
(§2) Antibacterial assay (Minimum Inhibitory Concentration [MIC]).
(§3) MIC assay was performed by a broth microdilution plate based method as per CLSI guidelines for antimicrobial susceptibility testing of aerobic bacteria.1 Compounds were prepared at 1.28 mg/mL solution in water. The tested strains, Table S1, were cultured in Luria broth (LB) (In Vitro Technologies, USB75852), at 37 °C overnight. A sample of culture was then diluted 40Pfold in fresh Muller Hinton broth (MHB) (Bacto laboratories, 211443) and incubated at 37 °C for 1.5P2 h. The compounds were serially diluted twoPfold across the wells, with compound concentrations ranging from 0.015 µg/mL to 512 µg/mL, plated in duplicate. The resultant midPlog phase cultures were diluted to the final concentration of 1×10^6 CFU/mL, then 50 µL was added to each well of the compoundP containing 96Pwell plates (Corning 3641, NonPbinding Surface [NBS]), giving a final compound concentration range of 0.008 µg/mL to 256 µg/mL and 5x10^5 CFU/mL. All the plates were covered and incubated at 37 °C for 18 h. MICs were determined visually, being defined as the lowest concentration showing no visible growth. Resazurin was added at 0.001% final concentration to each well and incubated for 2 h before MICs were rePread for confirmation using the colour change from blue to pink to indicate wells containing viable cells. The resazurin assay was added in some wells where some form of precipitate was present in otherwise clear wells, making it difficult to ascertain which wells had visible […]
(§4) Antifungal assay (Minimum Inhibitory Concentration [MIC]). MIC assay was performed by a broth microdilution plate based method as per CLSI guidelines for antimicrobial susceptibility testing.2 Fungi strains, Table S1, were cultured for 3 days on Yeast ExtractPPeptone Dextrose (YPD) (SigmaPAldrich, Y1500) agar at 30 °C. A yeast suspension of 1x10^6 to 5x10^6 CFU/mL was prepared from five colonies. These stock suspensions were diluted with Yeast Nitrogen Base (YNB) (Becton Dickinson, 233520) broth to a final concentration of 2.5 ×10^3 CFU/mL. All samples, compounds and standards were plated in 96Pwell plates (Corning 3641, NonPbinding Surface [NBS]), by adding 10 µL of 1.28 mg/mL stock solution to each well and 90 µL of media. Then, the samples were serial diluted (1:2) in 12 concentrations across the plate. The standard antifungal ranged from 256

[3] = system: E. coli ATCC 25922 cytoplasmic membrane; details: not told
[4] = system: K. pneumoniae ATCC 13883; format: cell-based, Klebsiella pneumoniae; details: ATCC 13883
Experimental: as §1, §2, §3, §4

[5] = system: E. coli ATCC 25922 (control strain); format: cell-based, Escherichia coli; details: ATCC 25922
Experimental: as §1, §2, §3, §4

[6] = system: E. coli ATCC 700926 (K12); format: cell-based, Escherichia coli; details: ATCC 700926
Experimental: as §1, §2, §3, §4

[7] = system: human erythrocytes; details: red cells of human, 3 h
[8] = system: A. baumannii ATCC 19606; format: cell-based, Acinetobacter baumannii; details: ATCC 19606
Experimental: as §1, §2, §3, §4

[9] = Plasma protein binding, ultrafiltration; format: in vitro ADME; details: 100% human plasma, read-out: PPB (%) (converted)
Experimental: Plasma protein binding was performed using an ultrafiltration method.[58]
Plasma protein binding assay
Plasma protein binding was performed using an Ultrafiltration method.13 Fresh frozen human plasma was pooled from O Negative (Product number 1274512) blood from the R & D division of the Australian Red Cross Blood Services (Brisbane). Stock solutions (20 mg/mL) of the test compounds were prepared in H2O. Test compounds (40 µg/mL) were incubated in 100 % human plasma at 37 °C for 30 min (1 mL volume). For unfiltered samples, an aliquot (50 µL) was removed, diluted with PBS (50 µL) and quenched with icePcold precipitating solution comprising 0.5 µM carbutamide MS internal standard in acetonitrile : methanol : formic acid (1: 1 : 0.001). Samples were incubated at 4 °C for 30 min then centrifuged at 14000 × g for 8 min, with the clear supernatant transferred to a vial for LC/MS/MS analysis.
For filtered samples, the plasma sample (250 µL) was filtered using Amicon UltraP0.5 Centrifugal Filter Devices 30K NMWL at 14000 × g for 7 min and then an aliquot (50 µL) was processed as described for unfiltered samples. The fraction of unbound compound was calculated by determining the concentration of the filtered sample and the concentration of unfiltered sample. All samples were performed in triplicate with sulfamethoxazole as a […]

[10] = system: P. aeruginosa ATCC 27853; format: cell-based, Pseudomonas aeruginosa; details: ATCC 27853
Experimental: as §1, §2, §3, §4

[11] = Cytotoxicity, Alamar Blue (resazurin) assay; format: cell-based, human; details: human
Experimental: Cytotoxicity to HEK293 and HepG2 cells was determined using the Alamar Blue (resazurin) assay,[55],[56] with 24 h of incubation and either 1 or 10% serum concentration. Full assay details are included in the Supporting Information.
Cytotoxicity. Cytotoxicity to HEK293 and HepG2 cells was determined using the Alamar Blue (resazurin) assay,3, 4 For the assays supplemented with 1 % FBS as final concentration the cells were seeded one day prior to the assay (3,000 per 20 µL for HEK293 and 4,000 per 20 µL for HepG2) with DMEM + 2 % FBS. The compounds were prepared as described below, using DMEM with no FBS instead to give the final FBS concentration of 1 %.
The highest concentration the compounds were tested was 300 µg/mL. A dilution series of 1:3 fold steps in DMEM (GIBCOPInvitrogen, cat. no. 11995P073) + 10 % FBS was created (concentration range of 600 µg/mL – 0.28 µg/mL), and 20 µL of these 2x concentrated compound dilutions were added in duplicates to wells of a black wall, clear bottom 384Pwells cell culture plate. For the assays with 1 % FBS the compounds in 0 % FBS were added to the existing cell plates in 2 % FBS. 200 µM Tamoxifen (Sigma T5648) served as negative control and in addition a serial dilution of tamoxifen, starting at 200 µM (74 µg/mL), was included as a dose response control (1 in 2 dilution series for tamoxifen). For the assay with 10 % FBS, HepG2 cells were seeded at 5000 cells per well, in a volume of 20 µL in DMEM medium + 10 % of FBS and added to the 20 µL of compound solution (total volume of 40 µL), resulting in a final compound concentration range of 300 µg/mL to 0.14 µg/mL.
Cells were incubated together with the compounds for 20 h at 37 °C, 5 % CO2.
After the incubation, 5 µL of 100 µM (25 µg/mL) resazurin dissolved in PBS (final concentration was approximately 11 µM) was added to each well. The plates were then incubated for 3 h at 37 °C, 5 % CO2. The fluorescence intensity was read using the TECAN Infinite M1000 PRO with excitation/emission 560/590. The data was analysed by Graph Pad Prism software. Results are presented as the average percentage of control ± SD for each set of duplicate wells using the following equation: Cell survival % = (FISAMPLE – FINegative/FIUNTREATED –FINegative)*100. (100 µg/mL tamoxifen was set as 0 % survival, media

[12] = hemolysis (%) at 300 μg/mL, human erythrocytes, 3 h, relative to 100% hemolysis by 1% Triton X-100

**Q.** For `CC(C)C[C@H](NC(=O)[C@H](CCCNC(=N)N)NC(=O)CNC(=O)CNC(=O)[C@@H](N)CCCNC(=N)N)C(=O)N[C@H]1CSSC[C@@H](C(=O)N[C@H](C(=O)NCC(=O)N[C@@H](CCCNC(=N)N)C(N)=O)C(C)C)NC(=O)[C@H](C(C)C)NC(=O)[C@@H]2CSSC[C@H](NC(=O)[C@H](Cc3ccc(O)cc3)NC1=O)C(=O)N[C@@H](CCCNC(=N)N)C(=O)N[C@@H](CCCNC(=N)N)C(=O)N[C@@H](CCCNC(=N)N)C(=O)N[C@@H](Cc1ccccc1)C(=O)N2` [protegrin-1], which “permeabilisation of the E. coli cytoplasmic membrane at lethal concentrations” value [1] is on record?
**A.** The value was “permeabilise”.

**Q.** What about the MIC [2] of the same molecule?
**A.** Its MIC is 0.03 µg/mL (≈ 0.0139 µM).

**Q.** And the “permeabilization concentration relative to MIC” value [3]?
**A.** Its value is “lower concentration than their MIC”.

**Q.** What about the MIC [4] of the same molecule?
**A.** The MIC was 0.5 µg/mL (≈ 0.232 µM).

**Q.** And the MIC [5]?
**A.** The MIC was 2 µg/mL (≈ 0.928 µM).

**Q.** What about the MIC [6] of the same molecule?
**A.** The MIC was 0.25 µg/mL (≈ 0.116 µM).

**Q.** What about the “hemolysis (%) at 300 μg/mL” value [7] of the same molecule?
**A.** The value was 64.8 ± 3.5%.

**Q.** And the MIC [8]?
**A.** Its MIC is 0.25 µg/mL (≈ 0.116 µM).

**Q.** What about the fraction unbound [9] of the same molecule?
**A.** Its fraction unbound is 0.11.

**Q.** What about the MIC [10] of the same molecule?
**A.** The MIC was 4 µg/mL (≈ 1.86 µM).

**Q.** What about the CC50 at 24 h ([11]; HEK293 cells, HEK293, 1% FBS, read-out: cytotoxicity HEK293 1% FBS) of the same molecule?
**A.** The CC50 at 24 h was 19.6 ± 1.2 µg/mL (≈ 9.09 µM).

**Q.** What about the CC50 at 24 h ([11]; HEK293 cells, HEK293, 10% FBS, read-out: cytotoxicity HEK293 10% FBS) of the same molecule?
**A.** The CC50 at 24 h was 93.9 ± 1.1 µg/mL (≈ 43.6 µM).

**Q.** And the CC50 at 24 h ([11]; HepG2 cells, HepG2, 1% FBS, read-out: cytotoxicity HepG2 1% FBS)?
**A.** The CC50 at 24 h was 31.4 ± 2 µg/mL (≈ 14.6 µM).

**Q.** What about the CC50 at 24 h ([11]; HepG2 cells, HepG2, 10% FBS, read-out: cytotoxicity HepG2 10% FBS) of the same molecule?
**A.** The CC50 at 24 h was 96.1 ± 1.1 µg/mL (≈ 44.6 µM).

**Q.** What about the hemolysis [12] of the same molecule?
**A.** Its hemolysis is 65%.
